Data taken from US11780821B2, “Inhibitors of fibroblast activation protein” (Praxis Biotech LLC, priority 2017, dated 2023).
Like-named read-outs stand apart in the source and are kept apart here.

Columns and labels:
[1] = target: T1, recombinant human PREP (rhPREP) (Homo sapiens, UniProt P48147); experiment: PREP enzymatic activity assay; type: biochemical; details: Z-Gly-Pro-AMC substrate
T1 sequence (P48147 1-710): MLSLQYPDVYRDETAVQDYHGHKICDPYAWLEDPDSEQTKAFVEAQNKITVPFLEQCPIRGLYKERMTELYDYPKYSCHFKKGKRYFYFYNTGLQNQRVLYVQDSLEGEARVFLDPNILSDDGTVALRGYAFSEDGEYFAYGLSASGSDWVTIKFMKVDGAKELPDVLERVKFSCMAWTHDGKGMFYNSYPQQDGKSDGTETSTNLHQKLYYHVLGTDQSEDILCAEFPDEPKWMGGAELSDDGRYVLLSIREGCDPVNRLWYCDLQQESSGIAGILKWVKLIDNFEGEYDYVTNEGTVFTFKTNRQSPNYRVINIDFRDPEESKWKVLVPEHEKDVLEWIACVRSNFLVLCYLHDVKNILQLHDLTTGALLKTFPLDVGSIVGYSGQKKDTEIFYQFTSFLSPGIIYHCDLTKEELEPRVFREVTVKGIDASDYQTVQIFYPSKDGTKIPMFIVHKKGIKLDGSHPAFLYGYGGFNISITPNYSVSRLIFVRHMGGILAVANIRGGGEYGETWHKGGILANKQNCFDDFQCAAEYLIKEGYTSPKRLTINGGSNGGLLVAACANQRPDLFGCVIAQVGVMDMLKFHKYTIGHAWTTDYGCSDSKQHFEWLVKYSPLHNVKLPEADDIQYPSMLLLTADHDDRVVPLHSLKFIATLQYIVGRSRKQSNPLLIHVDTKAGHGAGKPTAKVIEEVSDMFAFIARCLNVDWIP
Method: (§1) 7-Amino-4-Methylcoumarin (AMC) release was detected by measuring fluorescence at Ex/Em 380/460 nm using a Multifunction Microplate Reader (Synergy 4, Biotek). All measurements were carried out in triplicate.

mouse plasma FAPα = target: T2, mouse plasma FAPα (Mus musculus, UniProt P97321); experiment: FAPα enzymatic activity in mouse plasma; type: biochemical; details: C57BL/6 mouse plasma
T2 construct: from tissue; host or cells: mouse plasma (C57BL/6, EDTA)
T2 sequence (P97321 24-761 limits assumed): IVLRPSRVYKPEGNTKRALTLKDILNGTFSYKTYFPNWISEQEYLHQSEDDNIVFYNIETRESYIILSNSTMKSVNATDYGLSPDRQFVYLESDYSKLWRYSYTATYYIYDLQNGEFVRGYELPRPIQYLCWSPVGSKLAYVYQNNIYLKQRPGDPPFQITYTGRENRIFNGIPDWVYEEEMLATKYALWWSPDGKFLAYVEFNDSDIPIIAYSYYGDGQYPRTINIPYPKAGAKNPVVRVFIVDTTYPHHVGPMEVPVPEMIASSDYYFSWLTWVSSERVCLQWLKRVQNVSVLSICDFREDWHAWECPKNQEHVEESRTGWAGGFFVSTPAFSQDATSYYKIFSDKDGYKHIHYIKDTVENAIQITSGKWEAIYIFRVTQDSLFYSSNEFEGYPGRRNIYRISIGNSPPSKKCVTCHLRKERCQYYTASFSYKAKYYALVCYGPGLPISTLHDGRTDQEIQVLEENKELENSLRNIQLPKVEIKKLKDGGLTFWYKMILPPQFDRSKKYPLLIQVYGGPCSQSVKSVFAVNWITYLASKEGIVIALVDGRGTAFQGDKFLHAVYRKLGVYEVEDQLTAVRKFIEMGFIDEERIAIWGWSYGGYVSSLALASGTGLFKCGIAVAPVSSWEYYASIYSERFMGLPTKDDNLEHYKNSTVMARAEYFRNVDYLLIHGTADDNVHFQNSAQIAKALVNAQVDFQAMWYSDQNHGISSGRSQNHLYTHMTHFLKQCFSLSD
Method: The blood sample was immediately centrifuged at approximately 9000 g at 4° C. for 5 minutes. Plasma was separated and stored at −80° C. in aliquots of 300 μL. […] The assay was performed for 1 hour at 37° C. protected from light. 7-Amino-4-Methylcoumarin (AMC) release was detected measuring fluorescence at an excitation wavelength of 380 nm and an emission wavelength of 460 nm using a Multifunction Microplate Reader (Synergy 4, Biotek). All measurements were carried out at least as a single point.

[2] = target: T3, recombinant human DPP9 (rhDPP9) (Homo sapiens, UniProt Q86TI2); experiment: DPP9 enzymatic activity assay; type: biochemical; details: H-Gly-Pro-AMC substrate
T3 construct: purchased R&S system (so in the source)
T3 sequence (Q86TI2 whole entry): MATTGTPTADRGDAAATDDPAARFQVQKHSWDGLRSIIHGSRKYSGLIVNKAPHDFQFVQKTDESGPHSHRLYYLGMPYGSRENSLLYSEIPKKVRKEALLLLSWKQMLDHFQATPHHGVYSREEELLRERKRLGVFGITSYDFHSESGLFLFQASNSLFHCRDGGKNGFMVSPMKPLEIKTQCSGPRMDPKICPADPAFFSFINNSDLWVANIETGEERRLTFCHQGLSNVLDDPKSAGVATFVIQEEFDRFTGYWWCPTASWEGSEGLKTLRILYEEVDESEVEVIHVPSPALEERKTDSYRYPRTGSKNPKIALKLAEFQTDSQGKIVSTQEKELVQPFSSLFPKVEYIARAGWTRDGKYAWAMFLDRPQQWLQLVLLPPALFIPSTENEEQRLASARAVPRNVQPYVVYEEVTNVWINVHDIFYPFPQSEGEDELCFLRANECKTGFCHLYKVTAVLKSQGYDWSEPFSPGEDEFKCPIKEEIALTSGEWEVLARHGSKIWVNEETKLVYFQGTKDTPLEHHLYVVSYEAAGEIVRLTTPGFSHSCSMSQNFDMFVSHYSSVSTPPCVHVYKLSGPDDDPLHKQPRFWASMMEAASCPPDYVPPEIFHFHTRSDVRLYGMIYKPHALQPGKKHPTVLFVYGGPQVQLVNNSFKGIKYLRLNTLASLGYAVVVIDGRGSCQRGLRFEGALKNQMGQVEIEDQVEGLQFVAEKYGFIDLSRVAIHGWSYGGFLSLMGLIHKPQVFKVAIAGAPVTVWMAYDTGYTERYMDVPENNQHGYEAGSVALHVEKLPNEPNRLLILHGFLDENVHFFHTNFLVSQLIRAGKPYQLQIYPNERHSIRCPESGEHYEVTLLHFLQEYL
Method: as §1

[3] = Intravenous and oral bioavailability in mice; type: in vivo; details: mouse; for bioavailability: PO 10 mg/kg vs IV 2 mg/kg, read-out: F (bioavailability); for AUC(0-t): oral (PO) 10 mg/kg single dose
Method: The pharmacokinetic properties of exemplary test compounds were assayed after administration of an intravenous (IV) 2 mg/kg or oral (PO) 10 mg/kg single dose in mice. Exemplary test compounds were formulated at 0.4 and 1 mg/ml in a vehicle containing Poly-Ethylene Glycol 200 (PEG200; Cat. No. #P3015, Sigma Aldrich) and distilled water (dH2O) (50/50, v/v) as dosing solutions for intravenous and oral administration, respectively.
C57BL/6j and Balb/c mice, approximately 8-10 weeks old, were obtained from the vivarium Fundación Ciencia & Vida Chile (Santiago, Chile) and maintained in a temperature-controlled room with 12/12 hr light/dark schedule with food and water ad libitum. Animals were acclimated for a minimum period of 4 days upon arrival at the testing facility.
On the day of study, mice were weighed and identified by marking the tail with numbers using a non-toxic permanent marker for designation into the experimental groups (n=3 per group). Each mouse in the IV dosing groups received a systemic bolus of 2 mg/kg dosing solution via the caudal vein.
Non-dosed mice were used to collect samples of zero time points. […] Blood samples were centrifuged immediately at 9,000 g at 4° C. for 5 min and the plasma was separated.
The plasma samples were analyzed by QTRAP 4500 triple quadrupole mass spectrometer (Applied Biosystems SCIEX) in positive or negative ion mode depending on the tested compound and interfaced with an ekspert ultraLC 100-XL UPLC System (eksigent) to determine the concentration of the exemplary test compound. […] The precipitated samples were centrifuged at 6,100 g for 30 min at 4° C. Following centrifugation, an aliquot of each supernatant was transferred into a clean sample vial and diluted with two volumes of aqueous mobile phase (0.2% formic acid in water). Samples were injected onto a reverse phase analytical column (YMC Triart C18; 2.0×50 mm; 1.9 μm; YMC CO) and eluted with a gradient of 0.1 or 0.2% formic acid in Acetonitrile. Test compound and internal standard were monitored by a multiple reaction monitoring (MRM) experiment using Analyst software (v1.6.2, Applied Biosystems SCIEX). Quantitation was conducted using MultiQuant software (v2.1, Applied Biosystems SCIEX) and the resulting calibration curve was fitted with a linear or quadratic regression and 1/x weighting.
IV and PO PK parameters were calculated from the concentration-time data using Phoenix WinNonlin software (v6.4, Certara, Princeton, N.J.) by noncompartmental analysis. Area under the concentration-time curve (AUClast) was estimated using a log-linear trapezoidal method, from the dosing time to the last measurable concentration.

[4] = PRXS-AMC substrate, read-out: mouse plasma FAPα (PRXS-AMC) (exo IC50)
[5] = Z-Gly-Pro-AMC substrate, read-out: mouse plasma FAPα (Z-Gly-Pro-AMC) (exo IC50)

IC50 (mouse plasma FAPα; [5]) [nM]	Compound	IC50 [1] [nM]	IC50 (mouse plasma FAPα; [4]) [nM]	IC50 [2] [nM]	bioavailability ([3]; in vivo) [%]	AUC(0-t) ([3]; in vivo, plasma) [ng·h/mL]	AUC(0-t) ([3]; plasma) [ng·h/mL]	bioavailability ([3]; plasma) [%]
	N#C[C@@H]1CC(F)(F)CN1C(=O)CNC(=O)c1ccncc1C1=CCNCC1 [Compound 105, (S)—N-(2-(2-cyano-4,4-difluoropyrrolidin-1-yl)-2-oxoethyl)-1′,2′,3′,6′-tetrahydro-[3,4′-bipyridine]-4-carboxamide 2,2,2-trifluoroacetate]	> 10000	< 1000	> 10000	3	18.3		
< 1000	N#C[C@@H]1CC(F)(F)CN1C(=O)CNC(=O)c1c[nH]c(=O)c(-c2ccccc2)c1 [Compound 14, (S)—N-(2-(2-cyano-4,4-difluoropyrrolidin-1-yl)-2-oxoethyl)-6-oxo-5-phenyl-1,6-dihydropyridine-3-carboxamide]	> 10000	< 1000	1000 to 10000				
< 1000	N#C[C@@H]1CC(F)(F)CN1C(=O)CNC(=O)c1c[nH]c(=O)c2ccccc12 [Example 1, (S)—N-(2-(2-cyano-4,4-difluoropyrrolidin-1-yl)-2-oxoethyl)-1-oxo-1,2-dihydroisoquinoline-4-carboxamide]	1000 to 10000		1000 to 10000			327	6.3
< 1000	N#C[C@@H]1CC(F)(F)CN1C(=O)CNC(=O)c1c[nH]c(=O)c2ccc(F)cc12 [Compound 26, (S)—N-(2-(2-cyano-4,4-difluoropyrrolidin-1-yl)-2-oxoethyl)-6-fluoro-1-oxo-1,2-dihydroisoquinoline-4-carboxamide]	1000 to 10000	< 1000	1000 to 10000				
	C=C(c1ccccc1)c1cnccc1C(=O)NCC(=O)N1CC(F)(F)C[C@H]1C#N [Compound 122, (S)—N-(2-(2-cyano-4,4-difluoropyrrolidin-1-yl)-2-oxoethyl)-3-(1-phenylvinyl)isonicotinamide]	> 10000	< 1000	> 10000				
	N#C[C@@H]1CC(F)(F)CN1C(=O)CNC(=O)c1c[nH]c(=O)cc1-c1ccc(F)cc1 [Compound 109, (S)—N-(2-(2-cyano-4,4-difluoropyrrolidin-1-yl)-2-oxoethyl)-4-(4-fluorophenyl)-6-oxo-1,6-dihydropyridine-3-carboxamide]	> 10000	< 1000	1000 to 10000			2140	9
< 1000	Cn1ncc2c(-c3cnccc3C(=O)NCC(=O)N3CC(F)(F)C[C@H]3C#N)cccc21 [Compound 87, (S)—N-(2-(2-cyano-4,4-difluoropyrrolidin-1-yl)-2-oxoethyl)-3-(1-methyl-1H-indazol-4-yl)isonicotinamide]	> 10000	< 1000	> 10000				
< 1000	N#C[C@@H]1CC(F)(F)CN1C(=O)CNC(=O)c1ccncc1N1CCOCC1 [Compound 88, N-[2-[(2S)-2-cyano-4,4-difluoro-pyrrolidin-1-yl]-2-oxo-ethyl]-3-morpholino-pyridine-4-carboxamide]	> 10000	< 1000	1000 to 10000				
< 1000	C=Cc1cnccc1C(=O)NCC(=O)N1CC(F)(F)C[C@H]1C#N [Compound 40, (S)—N-(2-(2-cyano-4,4-difluoropyrrolidin-1-yl)-2-oxoethyl)-3-vinylisonicotinamide]	1000 to 10000	< 1000	> 10000				
< 1000	N#C[C@@H]1CC(F)(F)CN1C(=O)CNC(=O)c1ccncc1-c1cc(Cl)ccc1F [Compound 54, (S)-3-(5-chloro-2-fluorophenyl)-N-(2-(2-cyano-4,4-difluoropyrrolidin-1-yl)-2-oxoethyl)isonicotinamide]	> 10000	< 1000	> 10000				

Compound	IC50 (mouse plasma FAPα; [5]) [nM]	IC50 [1] [nM]	IC50 (mouse plasma FAPα; [4]) [nM]	IC50 [2] [nM]	bioavailability ([3]; in vivo) [%]	AUC(0-t) ([3]; in vivo, plasma) [ng·h/mL]	AUC(0-t) ([3]; plasma) [ng·h/mL]	bioavailability ([3]; plasma) [%]
N#C[C@@H]1CC(F)(F)CN1C(=O)CNC(=O)c1ccncc1C1CC1 [Compound 24, (S)—N-(2-(2-cyano-4,4-difluoropyrrolidin-1-yl)-2-oxoethyl)-3-cyclopropylisonicotinamide]	< 1000	1000 to 10000	< 1000	1000 to 10000			910	54
N#C[C@@H]1CC(F)(F)CN1C(=O)CNC(=O)c1ccncc1-c1ccc(F)cc1 [Compound 52, (S)—N-(2-(2-cyano-4,4-difluoropyrrolidin-1-yl)-2-oxoethyl)-3-(4-fluorophenyl)isonicotinamide]	< 1000	> 10000	< 1000	> 10000			721	30.3
N#C[C@@H]1CC(F)(F)CN1C(=O)CNC(=O)c1ccncc1-c1cc(F)cc(F)c1 [Compound 47, (S)—N-(2-(2-cyano-4,4-difluoropyrrolidin-1-yl)-2-oxoethyl)-3-(3,5-difluorophenyl)isonicotinamide]	< 1000	> 10000	< 1000	> 10000				
N#C[C@@H]1CC(F)(F)CN1C(=O)CNC(=O)c1ccncc1-c1ccccc1 [Compound 13, (S)—N-(2-(2-cyano-4,4-difluoropyrrolidin-1-yl)-2-oxoethyl)-3-phenylisonicotinamide]	< 1000	> 10000	< 1000	1000 to 10000			760	27.9
